This note sets out measurements from patent publication US20130244876A1, “Synergistic compositions comprising ethephon and saflufenacil or cyclanilide and saflufenacil” (priority 2012, published 2013).

One assay deals with cotton Variety Oxford. Briefly: Greenhouse trial for desiccation in cotton. It is filed as in vivo. As to conditions: foliar spray 100 L/ha, seven days after application. The procedure: (§1) The trial was established under greenhouse conditions. The objective was to evaluate the dessication activity of saflufenacil solo and in mixture with cyclanilide and ethephon.
(§2) The plants (soybean variety Maxi, cotton Variety Oxford) were sown (Dec. 3, 2012) in pots with 8.5 cm of diameter using standard soil from Limburgerhof, Palatinate, Germany, emerging after 3 days, maintained during the entire growth period at temperatures of about 20 to 24° C., relative humidity of about 65 to 70%, watering in the afternoon or in the morning. Each treatment was composed by 4 replications (one plant per pot).
(§3) Foliar treatments were applied 51 days after sowing (Jan. 23, 2013) in a spray cabin with one Flat fan nozzle, using 100 L/ha as application volume. The spray solutions were prepared according to the given concentration of Tables 1 and 2 and contained in addition to the formulations used a surfactant (DASH HC, BASF S.A., Brazil; EC formulation based on methyl esters) at 0,5% (v/v).
(§4) Saflufenacil (70% (w/w), WG formulation; Sharpen® BASF Corporation, USA)
(§5) Ethephon (480 g/L, SL formulation)
(§6) Cyclanilide, (300 g/kg, WP formulation)
(§7) Assessments were made at three days after applicaton in soybean and seven days after application in cotton by evaluating percentage of symptoms of damage to the crop, mainly chlorosis and necrosis.

The next assay relates to soybean variety Maxi. Briefly: Greenhouse trial for desiccation in soybean. It is filed as in vivo. As to conditions: foliar spray 100 L/ha, three days after application. As for the experimental part:
as §1, §2, §3, §4, §5, §6, §7

Where [1] appears, read: 1.5 g of a.i. per 100 L, percentage of symptoms of damage.
Setting [2] is: 20 g of a.i. per 100 L, percentage of symptoms of damage.
Setting [3] is: 1.4 g of a.i. per 100 L, percentage of symptoms of damage (chlorosis and necrosis).

On to `O=C(O)C1(C(=O)Nc2ccc(Cl)cc2Cl)CC1` [Cyclanilide], for which the “Observed activity (%)” value in the assay with cotton Variety Oxford (setting [1]) and in the assay with soybean variety Maxi (setting [1]) was 0% in each case.
As for `O=P(O)(O)CCCl` [Ethephon], the “Observed activity (%)” value with cotton Variety Oxford (setting [2]) and with soybean variety Maxi (setting [2]) was 0% throughout.
For `CC(C)N(C)S(=O)(=O)NC(=O)c1cc(-n2c(=O)cc(C(F)(F)F)n(C)c2=O)c(F)cc1Cl` [Saflufenacil], the “Observed activity (%)” value was 18.8% in the assay with cotton Variety Oxford (setting [3]) and 15% in the assay on soybean variety Maxi (setting [3]).
